Results published in ChEMBL document CHEMBL1201862, “PubChem BioAssay data set” (2004).
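96-well plates; 48 h exposure; 5 concentrations. Endpoints by linear interpolation between flanking doses. Not reached: highest tested concentration assigned. At the GI50, growth is halved.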 Active and inactive are the calls of the source. Cut-off read from the data, not from the text of the source: active = GI50 up to about 1.1 µM and inactive = higher.

Key:
Experiment in all cases: growth of human tumour cells (NCI), 48 h
HCT-15 = test system: HCT-15
A498 = test system: A498
K562 = test system: K562
RXF 393 = test system: RXF 393
ACHN = test system: ACHN
Hs-578T = test system: Hs-578T
NCI/ADR-RES = test system: NCI/ADR-RES
NCI-H226 = test system: NCI-H226
COLO 205 = test system: COLO 205
LOX IMVI = test system: LOX IMVI
HOP-62 = test system: HOP-62
MCF7 = test system: MCF7
CCRF-CEM = test system: CCRF-CEM
TK-10 = test system: TK-10
UACC-257 = test system: UACC-257
SF-268 = test system: SF-268
IGROV-1 = test system: IGROV-1
Malme-3M = test system: Malme-3M
SNB-75 = test system: SNB-75
OVCAR-5 = test system: OVCAR-5
KM12 = test system: KM12
SK-OV-3 = test system: SK-OV-3
MOLT-4 = test system: MOLT-4
DU-145 = test system: DU-145
SW-620 = test system: SW-620
CAKI-1 = test system: CAKI-1
OVCAR-3 = test system: OVCAR-3
RPMI-8226 = test system: RPMI-8226
OVCAR-4 = test system: OVCAR-4
HL-60 = test system: HL-60
M14 = test system: M14
BT-549 = test system: BT-549
EKVX = test system: EKVX
NCI-H460 = test system: NCI-H460
SK-MEL-28 = test system: SK-MEL-28
UACC-62 = test system: UACC-62
MDA-MB-435 = test system: MDA-MB-435
HT-29 = test system: HT-29
786-0 = test system: 786-0
U-251 = test system: U-251
SK-MEL-5 = test system: SK-MEL-5
SN12C = test system: SN12C
UO-31 = test system: UO-31
NCI-H23 = test system: NCI-H23
SR = test system: SR
NCI-H522 = test system: NCI-H522
A549 = test system: A549
SK-MEL-2 = test system: SK-MEL-2
SNB-19 = test system: SNB-19
HCT-116 = test system: HCT-116
HOP-92 = test system: HOP-92
SF-539 = test system: SF-539
SF-295 = test system: SF-295
T47D = test system: T47D
MDA-MB-231 = test system: MDA-MB-231
OVCAR-8 = test system: OVCAR-8
PC-3 = test system: PC-3
HCC 2998 = test system: HCC 2998
MDA-N = test system: MDA-N

With `OC(/C(=N/c1ccccc1)c1ccccc1)c1ccccc1` (stereo not drawn) the GI50 (HCT-15) was 29 µM, the GI50 (A498) was 16.1 µM (inactive) and the GI50 (K562) was 3.85 µM (inactive). The GI50 (RXF 393) was 12.3 µM (inactive), the GI50 (ACHN) was 14.4 µM (inactive) and the GI50 (Hs-578T) was 2.29 µM (inactive). The GI50 (NCI/ADR-RES) was 23.5 µM (inactive), the GI50 (NCI-H226) was 10.8 µM (inactive) and the GI50 (COLO 205) was 4.05 µM (inactive). The GI50 (LOX IMVI) was 12.4 µM (inactive), the GI50 (HOP-62) was 17.1 µM (inactive) and the GI50 (MCF7) was 5.62 µM (inactive). For the same compound, the GI50 (CCRF-CEM) was 3.32 µM (inactive), the GI50 (TK-10) was 2.72 µM (inactive) and the GI50 (UACC-257) was 2.17 µM (inactive). For the same compound, the GI50 (SF-268) was 4.99 µM (inactive), the GI50 (IGROV-1) was 9.46 µM (inactive) and the GI50 (Malme-3M) was 2.22 µM (inactive). The GI50 (SNB-75) was 5.6 µM (inactive), the GI50 (OVCAR-5) was 23.1 µM (inactive) and the GI50 (KM12) was 2.72 µM (inactive). The GI50 (SK-OV-3) was 22.2 µM (inactive), the GI50 (MOLT-4) was 6.62 µM (inactive) and the GI50 (DU-145) was 5.35 µM (inactive). The GI50 (SW-620) was 10.5 µM (inactive), the GI50 (CAKI-1) was 11.9 µM (inactive) and the GI50 (OVCAR-3) was 2.66 µM (inactive). For the same compound, the GI50 (RPMI-8226) was 4.49 µM (inactive), the GI50 (OVCAR-4) was 10.2 µM (inactive) and the GI50 (HL-60) was 2.94 µM (inactive). The GI50 (M14) was 4.8 µM (inactive), the GI50 (BT-549) was 2.68 µM (inactive) and the GI50 (EKVX) was 2.48 µM (inactive). For the same compound, the GI50 (NCI-H460) was 6.5 µM (inactive), the GI50 (SK-MEL-28) was 2.66 µM (inactive) and the GI50 (UACC-62) was 3.57 µM (inactive). For the same compound, the GI50 (MDA-MB-435) was 2.75 µM (inactive), the GI50 (HT-29) was 5.22 µM (inactive) and the GI50 (786-0) was 10.8 µM (inactive). The GI50 (U-251) was 4.1 µM (inactive), the GI50 (SK-MEL-5) was 2.07 µM (inactive) and the GI50 (SN12C) was 10.7 µM (inactive). The GI50 (UO-31) was 18 µM (inactive), the GI50 (NCI-H23) was 4.4 µM (inactive) and the GI50 (SR) was 3.53 µM (inactive). The GI50 (NCI-H522) was 4.35 µM (inactive), the GI50 (A549) was 11.3 µM (inactive) and the GI50 (SK-MEL-2) was 2.26 µM (inactive). For the same compound, the GI50 (SNB-19) was 6.52 µM (inactive), the GI50 (HCT-116) was 5.37 µM (inactive) and the GI50 (HOP-92) was 4.05 µM (inactive). The GI50 (SF-539) was 11.3 µM (inactive), the GI50 (SF-295) was 9.71 µM (inactive) and the GI50 (T47D) was 5.62 µM (inactive). For the same compound, the GI50 (MDA-MB-231) was 13.8 µM (inactive).
In the case of `N=C(N)n1nc2c(c1O)CCC2`, the GI50 (HCT-15) is reported as > 100 µM, the GI50 (K562) is reported as > 100 µM (inactive) and the GI50 (RXF 393) is reported as > 100 µM (inactive). For the same compound, the GI50 (ACHN) was > 100 µM (inactive), the GI50 (Hs-578T) was > 100 µM (inactive) and the GI50 (NCI/ADR-RES) was > 100 µM (inactive). For the same compound, the GI50 (NCI-H226) was > 100 µM (inactive), the GI50 (COLO 205) was > 100 µM (inactive) and the GI50 (LOX IMVI) was > 100 µM (inactive). For the same compound, the GI50 (HOP-62) was > 100 µM (inactive), the GI50 (OVCAR-8) was > 100 µM (inactive) and the GI50 (MCF7) was > 100 µM (inactive). The GI50 (CCRF-CEM) was > 100 µM (inactive), the GI50 (TK-10) was > 100 µM (inactive) and the GI50 (UACC-257) was > 100 µM (inactive). The GI50 (SF-268) was > 100 µM (inactive), the GI50 (IGROV-1) was > 100 µM (inactive) and the GI50 (Malme-3M) was > 100 µM (inactive). For the same compound, the GI50 (SNB-75) was > 100 µM (inactive), the GI50 (OVCAR-5) was > 100 µM (inactive) and the GI50 (SK-OV-3) was > 100 µM (inactive). For the same compound, the GI50 (DU-145) was > 100 µM (inactive), the GI50 (SW-620) was > 100 µM (inactive) and the GI50 (CAKI-1) was > 100 µM (inactive). The GI50 (PC-3) was > 100 µM (inactive), the GI50 (OVCAR-3) was > 100 µM (inactive) and the GI50 (OVCAR-4) was > 100 µM (inactive). The GI50 (HL-60) was > 100 µM (inactive), the GI50 (M14) was > 100 µM (inactive) and the GI50 (BT-549) was > 100 µM (inactive). For the same compound, the GI50 (HCC 2998) was > 100 µM (inactive), the GI50 (NCI-H460) was > 100 µM (inactive) and the GI50 (SK-MEL-28) was > 100 µM (inactive). The GI50 (UACC-62) was > 100 µM (inactive), the GI50 (MDA-MB-435) was > 100 µM (inactive) and the GI50 (HT-29) was > 100 µM (inactive). The GI50 (786-0) was > 100 µM (inactive), the GI50 (MDA-N) was > 100 µM (inactive) and the GI50 (U-251) was > 100 µM (inactive). The GI50 (SK-MEL-5) was > 100 µM (inactive), the GI50 (SN12C) was > 100 µM (inactive) and the GI50 (UO-31) was > 100 µM (inactive). For the same compound, the GI50 (NCI-H23) was > 100 µM (inactive), the GI50 (SR) was < 0.01 µM (active) and the GI50 (NCI-H522) was > 100 µM (inactive). For the same compound, the GI50 (A549) was > 100 µM (inactive), the GI50 (SK-MEL-2) was > 100 µM (inactive) and the GI50 (SNB-19) was > 100 µM (inactive). The GI50 (HCT-116) was > 100 µM (inactive), the GI50 (HOP-92) was > 100 µM (inactive) and the GI50 (SF-539) was > 100 µM (inactive). For the same compound, the GI50 (SF-295) was > 100 µM (inactive) and the GI50 (MDA-MB-231) was > 100 µM (inactive).
